Entries after “also recorded” stand apart in the source; their conditions may differ. Read-outs that look alike come from different tables or passages of the source.
Key:
[1] = system: paclitaxel-resistant cells; details: frequently observed; cited from earlier work
[2] = system: HAβ1L215H transfected CHO cells; test: Immunofluorescence for HA tag in drug-selected HAβ1L215H transfected populations; assay type: cell-based, Chinese hamster
Description: FIG. 8 depicts paclitaxel selects for transfected cells that express mutant HAβ1-tubulin. Cells transfected with HAβ1L215H cDNA were selected for resistance to G418 (A, B) or paclitaxel (C, D) either in the presence (A, C) or absence (B, D) of 1 μg/ml tetracycline. The total resistant cell population was then trypsinized and replated for 24 h in medium without tetracycline or paclitaxel before processing for immunofluorescence with an antibody specific for the HA tag. Arrows in B and C indicate cells that were positive for HAβ1L215H-tubulin expression. Approximately 50% of the cells in panel A, and 100% of the cells in panel D were positive for expression. Bar=10 μm.
Cells were grown on glass coverslips to approximately 70% of confluence and fixed in methanol (−20° C.) for at least 10 min as previously described (Gonzalez-Garay, M. L., and Cabral, F.). The primary antibody used for most experiments was mouse monoclonal 12CA5 (Boehringer Mannheim Corp., Indianapolis, Ind.), specific for the HA tag. This was followed by fluorescein conjugated goat antimouse IgG (Cappel). […]
The ability of β-tubulin mutations to confer paclitaxel resistance was evaluated in 2 ways. […] After the appearance of visible colonies (6–7 d), one duplicate dish was stained with methylene blue and colonies were counted. […]

[3] = system: CHO cell line tTApuro 6.6 transfected with HAβ1L215H cDNA; test: Cloning efficiencies of HAβ1L215H transfected cells under selective conditions; assay type: cell-based, Chinese hamster; details: for Number of colonies relative to G418+tetracycline, arbitrarily set at 100 / Cloning efficiency (colonies under selective conditions divided by colonies in αMEM+tetracycline): 2 mg/ml G418 or 0.2 μg/ml paclitaxel; for Cloning efficiency (colonies under selective conditions divided by colonies in αMEM+tetracycline): 6–10 d
Description: (§1) The ability of β-tubulin mutations to confer paclitaxel resistance was evaluated in 2 ways. In the first, stably transfected cell lines expressing mutant HAβ1-tubulin were seeded at approximately 100 cells/well in replicate wells of a 24-well dish containing increasing concentrations of paclitaxel. The assay was carried out in duplicate with only one set containing 1 μg/ml tetracycline. After 6–7 d, the medium was removed and the resistant colonies were stained with a solution of 0.1% methylene blue as previously described (Cabral, F., Sobel, M. E., and Gottesman, M. M. (1980) Cell 20, 29–36). In a second assay, aliquots (˜7×10^4 cells for selective, and ˜100 cells for non-selective conditions) from total transfected cell populations were seeded into duplicate 6-well dishes containing normal medium (non-selective), 2 mg/ml G418, or 0.2 μg/ml paclitaxel, each with or without 1 μg/ml tetracycline. After the appearance of visible colonies (6–7 d), one duplicate dish was stained with methylene blue and colonies were counted. Cells in the second dish were trypsinized and replated onto glass coverslips for immunofluorescence observation.
To rule out the possibility that we may have biased the results by examining specific clones of mutant HAβ1-tubulin expressing cells, we also tested the relative abilities of G418 and paclitaxel to select mutant HAβ1-tubulin positive cells from the total transfected cell populations. We reasoned that paclitaxel should be a powerful agent for selection of mutant HAβ1-tubulin expressing cells if, and only if, the mutant tubulin is capable of conferring resistance to the drug. To test this prediction, aliquots from an HAβ1L215H transfected cell population were grown under 6 different conditions: normal medium, medium containing 2 mg/ml G418, and medium containing 0.2 μg/ml paclitaxel, each in the presence or absence of 1 μg/ml tetracycline. Using the number of colonies obtained under nonselective conditions (normal medium containing tetracycline) as a control, the relative cloning efficiencies under the various selective conditions are summarized in Table II.
In Table II, CHO cell line tTApuro 6.6 was transfected with HAβ1L215H cDNA. At 24 h post-transfection, the cells were trypsinized and replated in normal medium (αMEM), medium containing 2 mg/ml G418, or medium containing 0.2 μg/ml paclitaxel, all either in the presence or absence of 1 μg/ml tetracycline. After 6–10 d (when visible colonies were seen) the cells were stained with methylene blue and the surviving colonies were counted. The cloning efficiency was calculated as the number of colonies obtained under selective conditions (G418 or paclitaxel) divided by the number of colonies obtained under nonselective conditions (αMEM+tetracycline). Numbers in parentheses are the number of colonies obtained relative to G418+tetracycline which was arbitrarily set at 100.

[4] = system: paclitaxel dependent cell line Tax-18; test: Cross-resistance growth assay in 24 well dishes, Tax-18; details: for Rescue of growth of drug-dependent Tax-18: no growth without drug
Description: Wild-type CHO cells (WT), Taxol resistant mutant Tax 5-6 (Tax^R), and Taxol dependent mutant Tax 18 (Tax^D) were seeded into replicate wells of 24 well dishes at a density of approximately 100 cells per well in increasing concentrations of Taxol or Taxotere as indicated (in μg/ml). The cells were grown 7 days and then stained with methylene blue.

[5] = system: Taxol resistant mutant Tax 5-6; test: Cross-resistance growth assay in 24 well dishes, Tax 5-6; assay type: cell-based, Chinese hamster; details: about 100 cells per well, grown 7 days
[6] = system: paclitaxel resistant human ovarian cells; details: gradually selected to higher levels of resistance; cited from earlier work
[7] = system: CHO cells transfected with HAβ1, HAβ1L215H, HAβ1L217R or HAβ1L228F; test: Paclitaxel dose response of stably transfected cell lines with or without tetracycline (24-well, methylene blue); assay type: cell-based, Chinese hamster; details: for Sensitivity to paclitaxel: cells transfected with mutant HAβ1-tubulin
Description: FIG. 7 depicts mutant HAβ1-tubulins confer paclitaxel resistance. Approximately 100 cells were seeded into replicate wells of 24-well dishes containing the indicated concentrations of paclitaxel (in ng/ml) with (“+”) or without (“−”) 1 μg/ml tetracycline. The cells were allowed to grow for 6–7 d and were then stained with methylene blue. The cell lines came from transfections with HAβ1 (A), HAβ1L215H (B), HAβ1L217R (C), or HAβ1L228F (D).
as §1
Measurement of drug resistance using a standard cloning efficiency assay was complicated by the observation that clones producing moderate to high levels of mutant HAβ1-tubulin grew poorly and produced many multinucleated cells. This problem was circumvented in 2 different ways. The first came from an observation that among the multinucleated cells, there were some cells that still looked normal. […]

[8] = system: CHO cells transfected with HAβ1, HAβ1G38E, HAβ1L217R or HAβ1L228F cDNAs; test: Direct selection of paclitaxel resistant transfected cells; assay type: cell-based, Chinese hamster
Description: as §1

wild-type CHO cells = test: Lethality of paclitaxel to wild-type cells; assay type: cell-based, Chinese hamster; details: tetracycline-free medium
Description: Measurement of drug resistance using a standard cloning efficiency assay was complicated by the observation that clones producing moderate to high levels of mutant HAβ1-tubulin grew poorly and produced many multinucleated cells. This problem was circumvented in 2 different ways. The first came from an observation that among the multinucleated cells, there were some cells that still looked normal. […] To select these cells, clones transfected with mutant HAβ1-tubulin were incubated in tetracycline-free medium containing a concentration of paclitaxel (0.2 μg/ml) that is lethal to wild-type cells. Multiple individual colonies were selected and tested for their dose response to paclitaxel; representative results are shown in FIG. 7. […] Thus HAβ1, HAβ1L215H, HAβ1L217R, and HAβ1L228F expressing cells were all tested for paclitaxel sensitivity in the presence or absence of tetracycline.

[9] = system: KB3 cervical carcinoma cell line; details: preliminary evidence
[10] = system: Paclitaxel Resistant CHO Cells
Description: Metabolic labeling was for 1 h in methionine-free MEM (ICN Biomedicals Inc., Costa Mesa, Calif.) containing 30 μCi/ml Tran ^35S-label (1,000 Ci/mmol; ICN Biomedicals).

CC[C@]1(O)C[C@H]2CN(CCc3c([nH]c4ccccc34)[C@@](C(=O)OC)(c3cc4c(cc3OC)N(C=O)[C@H]3[C@@](O)(C(=O)OC)[C@H](OC(C)=O)[C@]5(CC)C=CCN6CC[C@]43[C@@H]65)C2)C1 [vincristine]
Sensitivity of paclitaxel-resistant cells to the drug [1]: hypersensitive

CN[C@@H]1[C@@H](O)[C@@H](O[C@@H]2[C@@H](O)[C@H](O[C@H]3O[C@H]([C@@H](C)O)[C@@H](O)[C@H](O)[C@H]3N)[C@@H](N)C[C@H]2N)OC[C@]1(C)O [G418]
HA-positive cells in the selected population ([2]; selected under inducing conditions (no tetracycline)): < 10% | Number of colonies relative to G418+tetracycline, arbitrarily set at 100 ([3]; +Tetracycline 1 μg/ml): 100 | Cloning efficiency (colonies under selective conditions divided by colonies in αMEM+tetracycline) ([3]; +Tetracycline 1 μg/ml): 1.3 × 10^−3 | Lowering of selection efficiency under inducing conditions (no tetracycline) versus with tetracycline ([3]; G418 2 mg/ml): about 40% | Number of colonies relative to G418+tetracycline, arbitrarily set at 100 ([3]; −Tetracycline): 60 | Cloning efficiency (colonies under selective conditions divided by colonies in αMEM+tetracycline) ([3]; −Tetracycline): 7.9 × 10^−4

C/C(=C\c1csc(C)n1)[C@@H]1C[C@@H]2O[C@]2(C)CCC[C@H](C)[C@H](O)[C@@H](C)C(=O)C(C)(C)[C@@H](O)CC(=O)O1 [epothilone-B]
Resistance of Tax-18 to cytotoxic effects compared to wild-type cells ([4]; grown 7 d, stained with methylene blue): more resistant | Rescue of growth of drug-dependent Tax-18 ([4]; grown 7 d): rescued

CC(=O)O[C@@]12CO[C@@H]1C[C@H](O)[C@@]1(C)C(=O)[C@H](O)C3=C(C)[C@@H](OC(=O)[C@H](O)[C@@H](NC(=O)OC(C)(C)C)c4ccccc4)C[C@@](O)([C@@H](OC(=O)c4ccccc4)[C@H]21)C3(C)C [Taxotere]
Resistance of Tax 5-6 compared to wild-type cells [5]: more resistant | Resistance of Tax-18 to cytotoxic effects compared to wild-type cells [4]: resistant | Rescue of growth of drug-dependent Tax-18 ([4]; grown 7 d): rescued

COc1cc2c(c(OC)c1OC)-c1ccc(OC)c(=O)cc1[C@@H](NC(C)=O)CC2 [colchicine]
Sensitivity of paclitaxel-resistant cells to the drug [1]: increased sensitivity

CC(=O)O[C@H]1C(=O)[C@@]2(C)[C@H]([C@H](OC(=O)c3ccccc3)[C@]3(O)C[C@H](OC(=O)[C@H](O)[C@@H](NC(=O)c4ccccc4)c4ccccc4)C(C)=C1C3(C)C)[C@]1(OC(C)=O)CO[C@@H]1C[C@@H]2O [Paclitaxel, paclitaxel]
Fold resistance versus unselected cells [6]: 24 fold | Sensitivity to paclitaxel, HAβ1 expressed versus not expressed ([7]; HAβ1 (wild-type) transfected cells, with or without tetracycline): same sensitivity | Sensitivity to paclitaxel ([7]; grown with tetracycline): wild-type paclitaxel sensitivity | Sensitivity to paclitaxel ([7]; grown without tetracycline): clear resistance | HA-positive cells in the selected population ([2]; selected under non-inducing conditions (with tetracycline), assayed following induction): < 5% | Resistance of Tax 5-6 compared to wild-type cells [5]: more resistant | Paclitaxel resistant cells obtained by direct selection ([8]; HAβ1L217R and HAβ1L228F cDNAs): many paclitaxel resistant colonies | Paclitaxel resistant cells obtained by direct selection ([8]; HAβ1 or HAβ1G38E cDNAs, repeated three times): no paclitaxel resistant cells were obtained | Concentration lethal to wild-type cells (wild-type CHO cells): 0.2 µg/mL | Drug sensitivity of paclitaxel-selected mutant KB3 cells [9]: resistant | Selection under inducing conditions less efficient than G418 with tetracycline ([3]; 0.2 μg/ml paclitaxel, no tetracycline): 5 times | Fewer colonies under non-inducing conditions than under inducing conditions ([3]; 0.2 μg/ml paclitaxel, with tetracycline): 18 fold | Number of colonies relative to G418+tetracycline, arbitrarily set at 100 ([3]; +Tetracycline 1 μg/ml): 1 | Cloning efficiency (colonies under selective conditions divided by colonies in αMEM+tetracycline) ([3]; +Tetracycline 1 μg/ml): 1.4 × 10^−5 | Number of colonies relative to G418+tetracycline, arbitrarily set at 100 ([3]; −Tetracycline): 18 | Cloning efficiency (colonies under selective conditions divided by colonies in αMEM+tetracycline) ([3]; −Tetracycline): 2.3 × 10^−4 | Rescue of growth of drug-dependent Tax-18 ([4]; grown 7 d): rescued | Resistant or Dependent ([10]; cell line Tax 1–4, β-tubulin L215H): R | Resistant or Dependent ([10]; cell line Tax 1–19, β-tubulin L215R): R | Resistant or Dependent ([10]; cell line Tax 4–9, β-tubulin L215H): R | Resistant or Dependent ([10]; cell line Tax 6–9, β-tubulin L217R): R | Fold resistance to paclitaxel of cell lines selected in one step ([10]; single-step selection with a single lethal dose of paclitaxel): 2-3 fold

CC[C@]1(O)C[C@@H]2CN(CCc3c([nH]c4ccccc34)[C@@](C(=O)OC)(c3cc4c(cc3OC)N(C)[C@H]3[C@@](O)(C(=O)OC)[C@H](OC(C)=O)[C@]5(CC)C=CCN6CC[C@]43[C@@H]65)C2)C1 [vinblastine]
Drug sensitivity of paclitaxel-selected mutant KB3 cells [9]: hypersensitive | Sensitivity of paclitaxel-resistant cells to the drug [1]: increased sensitivity; also recorded: hypersensitive

From patent publication US7179588B1, “Assay for the detection of paclitaxel resistant cells in human tumors” (Board of Regents of the University of Texas System, priority 1999, dated 2007)
